We go through 26 compounds from US9399626B2, “2-thiopyrimidinones” (Pfizer Inc., priority 2011, dated 2016).

Counter-ions that a name gives are not always drawn.

The target in one experiment is T1, MPO (purified from human polynuclear leukocytes) (Homo sapiens, UniProt P05164).
T1 construct: purified from human polynuclear leukocytes; purchased Calbiochem/EMD Biosciences; host or cells: human polynuclear leukocytes (natural source)
T1 sequence (P05164 279-745 limits assumed): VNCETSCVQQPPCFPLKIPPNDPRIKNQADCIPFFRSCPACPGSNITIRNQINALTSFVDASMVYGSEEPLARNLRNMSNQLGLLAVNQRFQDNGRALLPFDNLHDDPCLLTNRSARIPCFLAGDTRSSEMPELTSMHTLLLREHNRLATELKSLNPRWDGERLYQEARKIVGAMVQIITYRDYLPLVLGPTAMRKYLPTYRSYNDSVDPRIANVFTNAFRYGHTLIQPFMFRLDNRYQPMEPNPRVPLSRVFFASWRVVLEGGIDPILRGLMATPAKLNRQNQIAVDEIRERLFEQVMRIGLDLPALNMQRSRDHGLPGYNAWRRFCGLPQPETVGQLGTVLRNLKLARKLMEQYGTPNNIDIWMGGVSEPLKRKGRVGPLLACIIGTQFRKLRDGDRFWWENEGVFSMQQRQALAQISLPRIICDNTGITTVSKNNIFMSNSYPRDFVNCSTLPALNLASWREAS
T1 sequence (P05164 165-273 limits assumed): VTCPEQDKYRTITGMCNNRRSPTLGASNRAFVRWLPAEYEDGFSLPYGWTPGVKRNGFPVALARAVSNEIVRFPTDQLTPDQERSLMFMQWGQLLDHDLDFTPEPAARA
Put plainly: MPO Amplex Red Activity Assay. It counts as biochemical. The following applies: Table 1, 2 μM H2O2, pH 7.4. In outline:
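Potency is given as kinact/KI: kobs values from 600 s progress curves, minus the uninhibited rate, are fit against inhibitor concentration. Reactions use 2 μM H2O2, 30 μM Amplex Red, pH 7.4 phosphate buffer with NaCl, DTPA and 2% DMSO, started with […] human MPO. Readout is resorufin fluorescence, catalase background subtracted.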
With `COCCn1c(-c2ccc(C#N)cc2)cc(=O)[nH]c1=S` [Example 13, 4-[3-(2-methoxyethyl)-6-oxo-2-thioxo-1,2,3,6-tetrahydro-pyrimidin-4-yl]benzonitrile], the “MPO kinact/Ki” value is reported as 745 1/s per M.

As for `COCCn1c(-c2ccc(OC(C)C)cc2)cc(=O)[nH]c1=S` [Example 327, 6-(4-isopropoxyphenyl)-1-(2-methoxyethyl)-2-thioxo-2,3-dihydropyrimidin-4(1H)-one], the “MPO kinact/Ki” value was 1880 1/s per M.

Regarding `COc1ccc(-c2cc(=O)[nH]c(=S)n2CCNC(=N)NC#N)c(OC)c1` [Example 136, 1-cyano-3-{2-[6-(2,4-dimethoxyphenyl)-4-oxo-2-thioxo-3,4-dihydropyrimidin-1(2H)-yl]ethyl}guanidine], the “MPO kinact/Ki” value is recorded as 1920 1/s per M.

For `CNCCn1c(-c2ccc(OC)cc2OC)cc(=O)[nH]c1=S` [Example 177, 6-(2,4-dimethoxyphenyl)-1-[2-(methylamino)ethyl]-2-thioxo-2,3-dihydropyrimidin-4(1H)-one formate], the “MPO kinact/Ki” value is 5130 1/s per M.

Turning to `COc1ccc(-c2cc(=O)[nH]c(=S)n2CC(=O)NCC(N)=O)c(OC)c1` [Example 254, N~2~-{[6-(2,4-dimethoxyphenyl)-4-oxo-2-thioxo-3,4-dihydropyrimidin-1(2H)-yl]acetyl}glycinamide], the “MPO kinact/Ki” value was 5630 1/s per M.

In the case of `COCCn1c(-c2ccc3cc[nH]c3c2)cc(=O)[nH]c1=S` [Example 301, 6-(1H-indol-6-yl)-1-(2-methoxyethyl)-2-thioxo-2,3-dihydropyrimidin-4(1H)-one], the “MPO kinact/Ki” value is 3330 1/s per M.

Consider `COc1ccc(Cl)cc1-c1cc(=O)[nH]c(=S)n1CCNC(=O)CN` [Example 135, N-{2-[6-(5-chloro-2-methoxyphenyl)-4-oxo-2-thioxo-3,4-dihydropyrimidin-1(2H)-yl]ethyl} glycinamide hydrochloride], for which the “MPO kinact/Ki” value is reported as 6750 1/s per M.

On to `COCCn1c(-c2cnc3ccccc3c2)cc(=O)[nH]c1=S` [Example 320, 1-(2-methoxyethyl)-6-quinolin-3-yl-2-thioxo-2,3-dihydropyrimidin-4(1H)-one], for which the “MPO kinact/Ki” value is 2390 1/s per M.

On to `COCCn1c(-c2cn(C)c3ccccc23)cc(=O)[nH]c1=S` [Example 67, 1-(2-methoxyethyl)-6-(1-methyl-1H-indol-3-yl)-2-thioxo-2,3-dihydropyrimidin-4(1H)-one], for which the “MPO kinact/Ki” value is on record as 7520 1/s per M.

`COc1cc(-c2cc(=O)[nH]c(=S)n2CCN)c(OC)cc1C` [Example 84, 1-(2-aminoethyl)-6-(2,5-dimethoxy-4-methylphenyl)-2-thioxo-2,3-dihydropyrimidin-4(1H)-one hydrochloride]: the “MPO kinact/Ki” value was 6630 1/s per M.

Regarding `COCCn1c(-c2cccc3ccsc23)cc(=O)[nH]c1=S` [Example 73, 6-(1-benzothien-7-yl)-1-(2-methoxyethyl)-2-thioxo-2,3-dihydropyrimidin-4(1H)-one], the “MPO kinact/Ki” value was 9870 1/s per M.

With `COc1ccc(-c2cc(=O)[nH]c(=S)n2CCC(=O)O)c(OC)c1` [Example 193, 3-[6-(2,4-dimethoxyphenyl)-4-oxo-2-thioxo-3,4-dihydropyrimidin-1(2H)-yl]propanoic acid], the “MPO kinact/Ki” value was 458 1/s per M.

As for `COc1ccc(Cl)cc1-c1cc(=O)[nH]c(=S)n1CC(N)=O` [Example 1, 2-(6-(5-Chloro-2-methoxyphenyl)-4-oxo-2-thioxo-3,4-dihydropyrimidin-1(2H)-yl)acetamide], the “MPO kinact/Ki” value was 11600 1/s per M.

As to `COCCn1c(-c2ccccc2CO)cc(=O)[nH]c1=S` [Example 292, 6-[2-(hydroxymethyl)phenyl]-1-(2-methoxyethyl)-2-thioxo-2,3-dihydropyrimidin-4(1H)-one], the “MPO kinact/Ki” value is listed as 1070 1/s per M.

Turning to `COc1ccc(-c2cc(=O)[nH]c(=S)n2CCC(=N)N)c(OC)c1` [Example 187, 3-[6-(2,4-dimethoxyphenyl)-4-oxo-2-thioxo-3,4-dihydropyrimidin-1(2H)-yl]propanimidamide trifluoroacetate], the “MPO kinact/Ki” value is 5640 1/s per M.

As for `COc1ccc(-c2cc(=O)[nH]c(=S)n2C[C@@H]2CCCN2)c(OC)c1` [Example 268, 6-(2,4-dimethoxyphenyl)-1-[(2S)-pyrrolidin-2-ylmethyl]-2-thioxo-2,3-dihydropyrimidin-4(1H)-one hydrochloride hydrochloride hydrochloride, hydrochloride hydrochloride …], the “MPO kinact/Ki” value is recorded as 6640 1/s per M.

In the case of `COCCn1c(-c2ccc3c(c2)CCO3)cc(=O)[nH]c1=S` [Example 308, 6-(2,3-dihydro-1-benzofuran-5-yl)-1-(2-methoxyethyl)-2-thioxo-2,3-dihydropyrimidin-4(1H)-one], the “MPO kinact/Ki” value is 5340 1/s per M.

`COCCn1c(-c2ccccn2)cc(=O)[nH]c1=S` [Example 10, 1-(2-Methoxyethyl)-6-(pyridin-2-yl)-2-thioxo-2,3-dihydropyrimidin-4(1H)-one]: the “MPO kinact/Ki” value was 619 1/s per M.

`COc1ccc(-c2cc(=O)[nH]c(=S)n2CCOCCN)c(OC)c1` [Example 269, 1-[2-(2-aminoethoxy)ethyl]-6-(2,4-dimethoxyphenyl)-2-thioxo-2,3-dihydropyrimidin-4(1H)-one hydrochloride]: the “MPO kinact/Ki” value is 9510 1/s per M.

On to `COc1ccc(OC)c(-c2cc(=O)[nH]c(=S)n2CCCN)c1` [Example 87, 1-(3-aminopropyl)-6-(2,5-dimethoxyphenyl)-2-thioxo-2,3-dihydropyrimidin-4(1H)-one hydrochloride], for which the “MPO kinact/Ki” value was 15400 1/s per M.

In the case of `COc1ccc(-c2cc(=O)[nH]c(=S)n2CC2CCNCC2)c(OC)c1` [Example 235, 6-(2,4-dimethoxyphenyl)-1-(piperidin-4-ylmethyl)-2-thioxo-2,3-dihydropyrimidin-4(1H)-one hydrochloride], the “MPO kinact/Ki” value is 2690 1/s per M.

The experiment is the same for the next values; noted with them: Table 1A, 2 μM H2O2, pH 7.4.
With `COc1ccc(-c2cc(=O)[nH]c(=S)n2CCN)cc1OC` [Example 360, 1-(2-aminoethyl)-6-(3,4-dimethoxyphenyl)-2-thioxo-2,3-dihydropyrimidin-4(1H)-one], the “MPO kinact/Ki” value is 2280 1/s per M.

`COc1ccc(-c2cc(=O)[nH]c(=S)n2CC(=O)N[C@@H]2CCNC2)c(OC)c1` [Example 388, 2-[6-(2,4-dimethoxyphenyl)-4-oxo-2-thioxo-3,4-dihydropyrimidin-1(2H)-yl]-N-[(3R)-pyrrolidin-3-yl]acetamide]: the “MPO kinact/Ki” value was 8690 1/s per M.

For the compound `NCCn1c(-c2ccc3c(c2)OCCO3)cc(=O)[nH]c1=S` [Example 357, 1-(2-aminoethyl)-6-(2,3-dihydro-1,4-benzodioxin-6-yl)-2-thioxo-2,3-dihydropyrimidin-4(1H)-one], the “MPO kinact/Ki” value was 2940 1/s per M.

Regarding `COc1ccc(Cl)cc1-c1cc(=O)[nH]c(=S)n1CCCNS(C)(=O)=O` [Example 353, N-{3-[6-(5-chloro-2-methoxyphenyl)-4-oxo-2-thioxo-3,4-dihydropyrimidin-1(2H)-yl]propyl}methanesulfonamide], the “MPO kinact/Ki” value is 11000 1/s per M.

With `COc1ccc(-c2cc(=O)[nH]c(=S)n2CC(N)=O)c(OCCO)c1` [Example 420, 2-{6-[2-(2-hydroxyethoxy)-4-methoxyphenyl]-4-oxo-2-thioxo-3,4-dihydropyrimidin-1(2H)-yl}acetamide], the “MPO kinact/Ki” value is 5210 1/s per M.
